From patent publication US5965743A, “N-substituted imidazol derivative” (Nippon Soda Co., Ltd., priority 1994, dated 1999) come the findings set out here.

Where two headings read alike, the source gives them in different places.

Assay [1] has as its system Triton WR-1339-Induced Hyperlipemia Mice. As to the kind of experiment: Effect on serum lipid in Triton WR-1339-induced hyperlipemia mice. In kind it is in vivo, mouse (Crj:ICR-strain). Conditions: Mus musculus, po (3 x 33.3 mg/kg), average of 10 animals, 24 hours. As to the method: For this test, Crj:ICR-strain male mice aged 7-9 weeks were provided. […] After 24 hours, blood sampling was performed for each mouse from the abdominal aorta under anesthesia with ether, and the collected blood were placed into plastic test tubes being placed with a blood separating agent beforehand, then after 30 min. or 1 hour, the blood sampled was centrifuged at 10,000 rpm to obtain the serum. Total cholesterol value, HDL cholesterol value and total triglyceride value in the serum were respectively measured by using the measuring kits and automatic biochemical analyser.

Assay [2] deals with biosynthesis of cholesterol. The assay is described as follows: Inhibitory effect on biosynthesis of cholesterol in cell-free biosystem. Conditions: cell-free rat liver enzyme system, 90 min, 37° C., pH 7.4; read-out: 50% Inhibitory Concentration (IC50), cholesterol biosynthesis. In kind it is biochemical, rat (SD-strain). As to the method:
Inhibitory Effect on Biosynthesis of Cholesterol in Cell-free Biosystem
(1) Preparation of Enzyme Reaction System
(§1) The preparation of the enzymatic system for the biosynthesis of cholesterol in rats was carried out according to the method described in Biochimica et Biophysica Acta, Vol.486, pp 70-81, 1977.
(§2) More particularly, SD-strain female rats weighing from […] were fed for 7 to 10 days with a diet containing 2% cholestyramine to enhance their biosynthetic activity of cholesterol. After killed the rats by means of depletion of blood in midnight, the livers thereof were removed and homogenized with a double volume of 0.1 M potassium phosphate buffer solution (pH 7.4) containing 15 mM nicotine amide and 2 mM magnesium chloride by using a loose fitting-type teflon homogenizer. The supernatant obtained by centrifuging the homogenate at 12,000×g for 30 min. was further centrifuged at 105,000×g for 90 min., thereby separating it to the microsome fraction and the supernatant fraction. The supernatant obtained were kept as the fraction resulting in the precipitation in 40-80% ammonium sulfate (hereinafter referred to as "soluble fraction"). Each of the soluble fraction and the microsome fraction were independently adjusted with 0.1 M potassium phosphate buffer solution (pH 7.4) to the volumes of 1 ml/g of liver and 1 ml/3 g of liver, respectively, and were kept and used in the subsequent tests as an enzyme solution for the mixing ratio of 16:1.
(2) Method for Measuring Cholesterol Biosynthesis Activity
(§3) Cholesterol biosynthesis activity was measured according to the method described in Biochimica Biophysica Acta, Vol.486, pp 70-81, 1977. 2 μl dimethylsulfoxide solution of the test compound were added to a solution composed of 50 μl of the enzyme solution prepared in (1) described above, 0.1 M potassium phosphate buffer solution (pH 7.4), 1 mM ATP, 5 mM glucose-1-phosphate, 6 mM glutathione, 6 mM magnesium chloride, 0.04 mM coenzyme A, 0.25 mM NAD, 0.25 mM NADP and 1 mM 2-^14 C-sodium acetate (111 MBq./mmol), and the resultant solution was adjusted to the whole volume of 0.2 ml and then allowed to a reaction for 90 min. at 37° C. while shaking. The reaction was then stopped by adding 1 ml of 15% ethanol solution of potassium hydroxide, and the solution was then heated for 1 hour at 75° C. After extracted unsaponificated products with hexane from the solution, the solution was then condensed and dried to the hard state and subsequently dissolved in small volume of a mixture of chloroform and methanol (mixing ratio; 1:2). The resultant chloroform-methanol solution was spotted on a pre-coated silica gel TLC plate, then developed with a developer composed of benzene and ethyl acetate (mixing ratio; 9:1). The cholesterol spot was then taken out from the plate, and the radient activity of the spot was measured by using a liquid scintillation counter. Based on the radio-activity measured, mthe 50% inhibitory concentration (IC50) of the compounds of the present invention were determined.

Assay [3] has as its target T1, squalene-2,3-oxide cyclase (Rattus norvegicus, UniProt P48450).
T1 sequence (P48450 2-733): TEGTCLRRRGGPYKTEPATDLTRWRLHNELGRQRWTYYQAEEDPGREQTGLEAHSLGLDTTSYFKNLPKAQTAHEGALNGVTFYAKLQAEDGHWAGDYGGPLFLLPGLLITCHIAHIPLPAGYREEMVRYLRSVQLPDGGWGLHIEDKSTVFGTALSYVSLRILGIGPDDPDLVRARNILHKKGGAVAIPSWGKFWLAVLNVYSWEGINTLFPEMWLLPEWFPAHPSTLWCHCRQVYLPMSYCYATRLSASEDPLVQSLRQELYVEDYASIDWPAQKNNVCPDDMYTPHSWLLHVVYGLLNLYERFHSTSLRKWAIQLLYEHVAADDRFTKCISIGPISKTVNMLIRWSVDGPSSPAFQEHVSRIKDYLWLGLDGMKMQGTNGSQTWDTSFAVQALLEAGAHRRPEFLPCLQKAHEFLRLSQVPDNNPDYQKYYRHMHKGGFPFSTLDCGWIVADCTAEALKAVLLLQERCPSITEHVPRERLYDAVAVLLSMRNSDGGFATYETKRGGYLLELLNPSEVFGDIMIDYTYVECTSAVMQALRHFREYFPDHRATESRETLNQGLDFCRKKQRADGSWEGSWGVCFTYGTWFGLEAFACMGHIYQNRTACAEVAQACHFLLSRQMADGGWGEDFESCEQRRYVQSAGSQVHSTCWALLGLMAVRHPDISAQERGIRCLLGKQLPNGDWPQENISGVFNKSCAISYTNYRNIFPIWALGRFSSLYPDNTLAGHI
The assay is described as follows: Sterol amount synthesized in cell-free cholesterol biosynthesis system (squalene-2,3-epoxide accumulation). In kind it is biochemical, rat (SD-strain). The conditions noted are these: average of 6 results. As to the method:
as §1, §2, §3
On the other hand, after determining the position of ^14 C-squalene-2,3-epoxide on the TLC, which was produced due to the action of AMO 1618 (Calbiochem, USA), a squalene-2,3-oxidecyclase inhibitor, the spot containing squalene-2,3-epoxide […] was taken out and the radio-activity thereof was then determined by using a liquid scintillation counter.

For another assay, the system named is cholesterol biosynthesis. The assay is described as follows: In vivo inhibition test on cholesterol biosynthesis in mice. Further details: species or system mouse (Crj:ICR-strain). The conditions noted are these: n = 5, 30 mg/kg oral; for 14C-Cholesterol in serum: control group 3783 (for 1-71), 5694 (for 2-64, 2-71, 2-72); for Inhibition Rate on cholesterol biosynthesis: vs control group. As to the method: In Vivo Inhibition Test on Cholesterol Biosynthesis
For this test, Crj:ICR-strain male mice aged 7-9 weeks were provided. The mice were fed with a diet containing 2% cholestyramine for 7 to 10 days under reversed lighting condition, namely the mice were placed in dark condition during 7:00 AM to 7:00 PM. Each of the test compounds was dissolved or suspended in either distillated water or 1% aqueous solution of poly(oxyethylene) curing castor oil and was orally administrated to the mice at a dose of 30 mg/kg at 10:30 AM, respectively. After 1 hour following to the administration of the test compound, the mice were intraperitoneally administrated with ^14 C-sodium acetate at a dose of 5 μCi/0.5 ml/mouse, respectively. After 2 hours, blood sampling was performed for each mouse from the abdominal aorta under anesthesia with ether and the blood sampled were placed into plastic test tubes being placed with blood separating agent beforehand to separate the serum, respectively. Each 0.5 ml of the serum was then added with 1 ml of 20% ethanol solution of potassium hydroxide and heated for 3 hours at 75° C. After extracting the unsponified substance with n-hexane, the serum was condensed to the dry hard state and dissolved in small amount of a mixed solution of chloroform and methanol (mixing ratio; 1:2). The resultant chloroform-methanol solution was then spotted on pre-coated silica gel TLC and developed with a mixed solution of benzene and ethyl acetate (mixing ratio; 9:1). The cholesterol spot was then taken out and the radio-activity thereof was measured by using a liquid scintillation counter. Based on the radio-activity measured, the inhibition rate on cholesterol biosynthesis were determined respectively for the compounds of the present invention.

Where [4] appears, read: read-out: % Change of Serum Lipid to Control Group: HDL Cholesterole.
[5] abbreviates: read-out: % Change of Serum Lipid to Control Group: Total Cholesterole.
The mark [6] stands for this setting: read-out: % Change of Serum Lipid to Control Group: Total glyceride.
Setting [7] is: 1 μM, control 2125 (Test 1, 1-17), 953 (Test 2, 2-47).
Where [8] appears, read: 1 μM, control 15448 (Test 1, 1-17), 9453 (Test 2, 2-47).
[9] abbreviates: 1 μM, control 85102 (Test 1, 1-17), 53622 (Test 2, 2-47).
The mark [10] stands for this setting: 3 μM, control 2125 (Test 1, 1-17), 953 (Test 2, 2-47).
Where [11] appears, read: 3 μM, control 15448 (Test 1, 1-17), 9453 (Test 2, 2-47).
Setting [12] is: 3 μM, control 85102 (Test 1, 1-17), 53622 (Test 2, 2-47).
Setting [13] is: 10 μM, control 2125 (Test 1, 1-17), 953 (Test 2, 2-47).
Where [14] appears, read: 10 μM, control 15448 (Test 1, 1-17), 9453 (Test 2, 2-47).
Setting [15] is: 10 μM, control 85102 (Test 1, 1-17), 53622 (Test 2, 2-47).
Setting [16] is: 30 μM, control 2125 (Test 1, 1-17), 953 (Test 2, 2-47).
[17] abbreviates: 30 μM, control 15448 (Test 1, 1-17), 9453 (Test 2, 2-47).
Where [18] appears, read: 30 μM, control 85102 (Test 1, 1-17), 53622 (Test 2, 2-47).

For the compound `c1ccc(CCCNc2ccc(-n3ccnc3)cc2)cc1` [Compound 1-17], the change in vivo at 100 mg/kg was 78% in assay [1] (setting [4]), -29% in assay [1] (setting [5]) and -46% in assay [1] (setting [6]). Also, the IC50 in assay [2] came out at 1500 nM. Moreover, the “Sterol Amount Synthesized: Squalene-2,3-epoxide” value in assay [3] (setting [7]) is 3238 dpm/90min/Assay; in assay [3] (setting [10]), 2102 dpm/90min/Assay; in assay [3] (setting [13]), 7382 dpm/90min/Assay; in assay [3] (setting [16]) it was 10914 dpm/90min/Assay; in assay [3] (100 μM, control 2125 (Test 1)) it was 12736 dpm/90min/Assay. Moreover, the “Sterol Amount Synthesized: Cholesterol” value in assay [3] (setting [8]) was 15297 dpm/90min/Assay; in assay [3] (setting [11]), 8938 dpm/90min/Assay; in assay [3] (setting [14]), 6364 dpm/90min/Assay; in assay [3] (setting [17]), 3558 dpm/90min/Assay; in assay [3] (100 μM, control 15448 (Test 1)), 1830 dpm/90min/Assay. The “Sterol Amount Synthesized: Total Amount Synthesized” value in assay [3] (setting [9]) came out at 72069 dpm/90min/Assay; in assay [3] (setting [12]), 82446 dpm/90min/Assay; in assay [3] (setting [15]) it was 79733 dpm/90min/Assay; in assay [3] (setting [18]), 95990 dpm/90min/Assay; in assay [3] (100 μM, control 85102 (Test 1)), 77489 dpm/90min/Assay.

Take `O=S(=O)(CCCOc1ccc(-n2ccnc2)cc1)c1ccccc1` [Compound 1-71]: the values for the change in vivo at 100 mg/kg in assay [1] (setting [4]), in assay [1] (setting [5]) and in assay [1] (setting [6]) were 82%, -23% and -20%, respectively. In the assay on cholesterol biosynthesis, the 14C-Cholesterol in serum amounted to 575 dpm/1 ml Serum. In the assay with cholesterol biosynthesis, the “Inhibition Rate on cholesterol biosynthesis” value (“Inhibition Rate” below) came to 85%. Besides, the IC50 in assay [2] stood at 2400 nM.

As for `c1ccc(CCCOc2ccc(Cn3ccnc3)cc2)cc1` [Compound 2-47, 1-[4-(3-phenylpropyloxy)benzyl]imidazole], in assay [2], the IC50 came out at 1400 nM. For the same compound, the “Sterol Amount Synthesized: Squalene-2,3-epoxide” value in assay [3] (setting [7]) is reported as 221 dpm/90min/Assay; in assay [3] (setting [10]) it was 1280 dpm/90min/Assay; in assay [3] (setting [13]) it was 1836 dpm/90min/Assay; in assay [3] (setting [16]), 7126 dpm/90min/Assay. For the same compound, the “Sterol Amount Synthesized: Cholesterol” value in assay [3] (setting [8]) is recorded as 5289 dpm/90min/Assay; in assay [3] (setting [11]), 6333 dpm/90min/Assay; in assay [3] (setting [14]), 4210 dpm/90min/Assay; in assay [3] (setting [17]), 3787 dpm/90min/Assay. Besides, the “Sterol Amount Synthesized: Total Amount Synthesized” value in assay [3] (setting [9]) stood at 53803 dpm/90min/Assay; in assay [3] (setting [12]) it was 56335 dpm/90min/Assay; in assay [3] (setting [15]), 72823 dpm/90min/Assay; in assay [3] (setting [18]), 63661 dpm/90min/Assay.

For `c1ccc(SCCCOc2ccc(Cn3ccnc3)cc2)cc1` [Compound 2-64, 1-[4-(3-phenylthiopropyloxy)benzyl]imidazole], in the assay with cholesterol biosynthesis, the 14C-Cholesterol in serum is 460 dpm/1 ml Serum and the “Inhibition Rate” value was 92%. Moreover, the IC50 in assay [2] was found to be 6000 nM.

For `O=S(=O)(CCCOc1ccc(Cn2ccnc2)cc1)c1ccccc1` [Compound 2-71], the change in vivo at 100 mg/kg in assay [1] (setting [4]) was 60%; in assay [1] (setting [5]), -30%; in assay [1] (setting [6]), -21%. The compound also registered a 14C-Cholesterol in serum in the assay on cholesterol biosynthesis of 73 dpm/1 ml Serum. Besides, the “Inhibition Rate” value in the assay with cholesterol biosynthesis is listed as 99%.

Turning to `c1ccc(OCCCOc2ccc(Cn3ccnc3)cc2)cc1` [Compound 2-72], the change in vivo at 100 mg/kg in assay [1] (setting [4]) is 28%; in assay [1] (setting [5]), -21%; in assay [1] (setting [6]), -29%. Besides, the 14C-Cholesterol in serum in the assay on cholesterol biosynthesis came out at 3980 dpm/1 ml Serum. The “Inhibition Rate” value with cholesterol biosynthesis is on record as 30%. Also, the IC50 in assay [2] was determined as 6000 nM.
